Results: patent US10220019B2, “Method for treating pulmonary fibrosis comprising application of dimethylamino micheliolide” (Tianjin International Joint Academy of Biotechnology & …, priority 2016, dated 2019)

Test system: mouse pulmonary fibrosis model
Experiment: Mouse pulmonary fibrosis model and pharmacodynamics test of ACT001
Assay type: in vivo, Kunming mice (male)
Experimental: a) Preparation of ACT001 solution: 1 g ACT001 powder was weighed and dissolved in 100 mL 0.9% normal saline solution to prepare 10 mg/mL solution. When it was fully dissolved, it was filter sterilized with 0.22 μm filter for use, and was freshly prepared each time before use. The preparation and the use of the solution should be performed in a sterile biosafety cabinet.
b) Preparation of ethyl viologen hydrate solution: 2 g ethyl viologen hydrate was weighed and dissolved in 100 mL 0.9% normal saline to prepare 20 mg/mL solution. When it was fully dissolved, it was filter sterilized with 0.22 μm filter for use, and was freshly prepared each time before each use. The preparation and the use of the solution should be performed in a sterile biosafety cabinet.
Randomly divide 36 mice into three groups: normal group, control group (pulmonary fibrosis model group), ACT001 group (administering ACT001 after modeling), and 12 animals per group. Conduct a one-off intragastric administration of 0.15 mL of 0.9% normal saline to each animal in the normal group; and conduct a one-off intragastric administration of 0.15 mL of the ethyl viologen hydrate solution to each animal in the control group and ACT001 group.
3 weeks after modeling, drug treatment was given to the mice. Conduct an intragastric administration of 0.1 mL of 0.9% normal saline to each animal in the normal and control groups, and conduct an intragastric administration of 0.1 mL ACT001 aqueous solution to each animal in the ACT001 group. Once every 2 days.
At the third week after modeling, the second week after drug administration, and the third week after drug administration, four mice were each taken from the normal group, control group and ACT001 group, sacrificed by breaking their necks, their lung tissues were sampled, after fixing the tissues with 10% formalin for two days, the fixing solution on the surface of the lung tissues was washed away with running water, the lung tissues were then dehydrated with a pathological tissue dehydration machine, the tissues were embed in paraffin, the embedded tissues were sectioned, H.E. staining was conducted and slides were covered before observing the changes of the lung tissues under microscope.

[1] = after 3 weeks of drug administration
[2] = second week after ACT001 administration, intragastric 0.1 mL once every 2 days

## CC1=C2CC[C@@](C)(O)C2[C@H]2OC(=O)[C@@H](CN(C)C)[C@@H]2CC1 (stereo partly shown) [ACT001, dimethylamino micheliolide]
[1]
  difference in pulmonary coefficient versus the normal group: no significant difference
  pulmonary coefficient lower relative to the control group: 0.47%
After 3 weeks of drug administration, normal group 0.4012 g, control group 0.5983 g
  average lung weight: 0.4034 g
After 3 weeks of drug administration, normal group 0.81%, control group 1.32%
  average of pulmonary coefficient (lung wet mass/body weight*100%): 0.85%
After 3 weeks of drug administration, normal group 49.2352 g, control group 45.4575 g
  average body weight: 47.576 g
Second week after ACT001 administration, intragastric 0.1 mL of 10 mg/mL solution once every 2 days, started 3 weeks after modeling, compared with control group
  blood supply in the lung tissue (lung tissue morphology under stereoscopic microscope): significant improvement of blood supply in the lung tissue
[2]
  alveolar structures (lung tissue section, H.E. staining): restored to normal
  deposition in the lung interstitials (lung tissue section, H.E. staining): significantly reduced
Second week after ACT001 administration, intragastric 0.1 mL once every 2 days, compared with control group
  fibrosis degree of the lung (lung tissue section, H.E. staining): significant improvement for the fibrosis degree of the lung
Third week after ACT001 administration, compared with control group
  level of pulmonary fibrosis (lung tissue morphology and tissue section): significantly reduced
